Source: patent US20090123389A1, “Methods for modulating Th17 cell development in the treatment and prevention of cellulite” (priority 2007, published 2009)

Tests used:
T-cells and fibroblasts = assay: Non-specific effects at high concentrations in vitro; assay type: cell-based; details: about 80 nM HF, primary T-cells
[1] = tested on: Xenopus feeding stage tadpoles; assay: Toxicity in Xenopus feeding stage tadpoles; details: 400 nM HF, treatment for 7 days
TSK mouse = details: 1 μg HF/mouse IP daily; cited from earlier work
STAT3 = assay: Kinetics of STAT3 phosphorylation in developing Th17 cells; assay type: cell-based, mouse; details: TGFβ plus IL-6
Protocol: FIG. 11A is a series of graphs depicting representative histograms displaying the kinetics of STAT3 phosphorylation in developing Th17 cells treated with or without HF. Resting naïve T cells (shaded peak), T cells activated in the presence of TGFβ plus IL-6 (TGFβ/IL-6) treated with 10 nM MAZ1310, TGFβ/IL-6-activated T cells treated with 5 nM HF, TGFβ/IL-6-activated T cells treated with 10 nM HF. T cells were fixed at the indicated times and intracellular phospho-STAT3 staining was performed.
Whole cell lysates were generated at the indicated times following activation, and western blotting was performed using the indicated antibodies.
FACS analyses and sorting: All cell surface staining was performed in FACS buffer (PBS/2% FCS/0.1% NaN3) and antibodies were incubated with cells on ice for 20-30 minutes. Cells were washed with FACS buffer and fixed with FACS buffer plus 1% paraformaldehyde prior to data acquisition. For phospho-STAT3 intracellular staining, stimulated T cells cultured with or without TGFβ plus IL-6 for the indicated times were harvested on ice and fixed in PBS plus 2% paraformaldehyde for 10 minutes at 37° C. […] All FACS data was acquired on a FACSCalibur flow cytometer (BD Pharmingen) and analyzed using FlowJo software (Treestar, Inc., Ashland, Oreg.). […]

O=C(CC1NCCCC1O)Cn1cnc2cc(Br)c(Cl)cc2c1=O (racemic) [HF, 7-bromo-6-chloro-3-[3-(3-hydroxy-2-piperidinyl)-2-oxopropyl]-4(3H)-quinazolinone]
T-cell proliferation at high concentrations (T-cells and fibroblasts): generalized inhibition
toxic effects in tadpoles [1]: does not have detectable toxic effects
normal skin thickness (TSK mouse): did not reduce
skin thickness of TSK mouse (TSK mouse): reduced skin thickness of a TSK mouse to that of a normal mouse
toxic effects in TSK model (TSK mouse): no toxic effects
STAT3 activation during the first 6 hours of Th17 differentiation (STAT3; 5 or 10 nM HF): did not interfere
maintenance of STAT3 phosphorylation (STAT3; beginning around 12 hours-post activation): decreased the maintenance of STAT3 phosphorylation
